Where two headings read alike, the source gives them in different places. Marks after values point to notes of the source that are not given here.
What was measured:
[1] = system: GAS strain HKU16 (Streptococcus pyogenes strain HKU16); assay: microbe, parasite or virus in culture; format: cell-based
Experimental: (§1) J. Path. Bact. […] Proc. Soc.
(§2) MIC assays were carried out in biological triplicates.
(§3) M100 Performance Standards for Antimicrobial Susceptibility Testing, 27th Edition.

[2] = system: Vancomycin-resistant Enterococci (VRE) clinical isolate RBWH1; assay: MIC by broth microdilution (CLSI); format: cell-based, Enterococcus; details: for antibiotic sensitivity of resistant strain: addition of sub-inhibitory PBT2+zinc(II) ions
Experimental: as §1, §2, §3

GAS = assay: Drop test assay, growth on THY agar; format: cell-based, Streptococcus pyogenes; details: PBT2 (1.5 μM), zinc(II) ions (400 μM)
Experimental: (§4) FIG. 1a illustrates growth of GAS, MRSA and VRE on THY agar in the presence or absence of PBT2 (1.5 μM) and zinc(II) ions (400 μM).
(§5) Bacteria were diluted from overnight cultures to get a starting OD600 of 0.01 in THY. Once the bacteria grew to an OD600 of 0.6, the culture were serially diluted in PBS and 5 μL of each dilution (undiluted, 10^−1, 10^−2, 10^−3, 10^−4, 10^−5) was plated on THY agar plates with or without zinc (400 μM) and/or PBT2 ([…]). Plates were incubated at 37° C. overnight. Drop tests were undertaken in biological triplicates.

MRSA = assay: Drop test assay, growth on THY agar; format: cell-based, Staphylococcus aureus; details: PBT2 (1.5 μM), zinc(II) ions (400 μM)
Experimental: as §4, §5

VRE [3] = assay: Drop test assay, growth on THY agar; format: cell-based, Enterococcus; details: PBT2 (1.5 μM), zinc(II) ions (400 μM)
Experimental: as §4, §5

[4] = humans; up to 250 mg/day (oral) for 12 weeks; cited from earlier work
[5] = system: Methicillin-resistant Staphylococcus aureus (MRSA) strain USA300; assay: MIC by broth microdilution (CLSI)
Experimental: GAS HKU16, MRSA USA300, VRE RBWH1, Klebsiella pneumoniae strain MS6771, E. coli strain MS8345 and Streptococcus pneumoniae strain 23F were grown in Todd-Hewitt broth (THB) or agar with 1% yeast extract (THY) [Todd, E. W. & Hewitt, L. F. A new culture medium for the production of antigenic streptococcal haemolysin. […] Bacteria were routinely grown at 37° C. in ambient air.
MICs were determined by broth microdilution in accordance to CLSI guidelines (“Methods for Dilution Antimicrobial Susceptibility Tests for Bacteria That Grow Aerobically”, Clinical and Laboratory Standards Institute) [Clinical and Laboratory Standards Institute. […] For MRSA, VRE, Klebsiella pneumoniae and E. coli the assays were performed in MHB, and for GAS and Streptococcus pneumoniae MHB+2.5% lysed horse blood (LHB) was used. The bacterial inoculum was prepared by direct colony suspension aiming for 2-8×10^5 colony forming units (CFU)/mL bacteria per well. Antibiotics/compounds were serially diluted two-fold across the 96-well plate, the last column contained no antibiotics/compounds. The inoculum was added to the plate containing antibiotic/compound and incubated for 16-24 h at 35+/−2° C. […] MIC assays were carried out in biological triplicates.
Using Clinical and Laboratory Standards Institute guidelines for antimicrobial sensitivity testing [Clinical and Laboratory Standards Institute.

[6] = system: Klebsiella pneumoniae strain MS6771; assay: MIC by broth microdilution (CLSI); format: cell-based
VRE [7] = assay: Murine wound infection model; format: in vivo, BALB/c mice; details: 4 days
Excerpt: For wound infection, 4-7 week old female BALB/c mice were used and housed in individual cages [Pandey, M. et al. A synthetic M protein peptide synergizes with a CXC chemokine protease to induce vaccine-mediated protection against virulent streptococcal pyoderma and bacteremia. J Immunol 194, 5915-5925, doi:10.4049/jimmunol.1500157 (2015)]. The neck area of the mice was shaved and residual hair removed using Nair (Church & Dwight) prior to the experiment. On the day of infection, mice were anesthetized by inhalation of methoxyflurane and a small superficial scarification was made on the shaved skin using a metal file. For infection, 5×10^6-2×10^7 CFU GAS or 5×10^5-2×10^6 CFU MRSA/VRE were applied onto the scarified skin. […] Mice were treated with ointment twice daily and a total of 9 treatments were applied. […] […] After four days treatment, the mice were euthanized, the scarified skin was excised, and washed twice in PBS by vortexing for 30 seconds. […] Each treatment group contained six mice and statistical significance was calculated using an unpaired t-test (non-parametric).

[8] = system: MCR-1 E. coli strain MS8345; assay: MIC by broth microdilution (CLSI); format: cell-based, Escherichia coli; details: for antibiotic sensitivity of resistant strain: MCR1-positive E. coli MS8345; for MIC: MCR-1 E. coli
Experimental: as §1
J Infect Dis. 1995 171:890-6). E. coli strain MS8345 is a MCR-1 resistant clinical isolate supplied by Prof. D. L. Paterson, University of Queensland Centre for Clinical Research.
(§6) (2017)]. […] MIC assays were carried out in biological triplicates.

A. baumannii strain 42-A = assay: MIC by broth microdilution (CLSI); format: cell-based, Acinetobacter baumannii; details: Untreated
Experimental: (§7) They were obtained from Jan Bell, Australian Centre of Microbial Resistance Ecology (ACARE), University of Adelaide, Australia.
as §6

[9] = system: P. aeruginosa strain 253-43-C; assay: MIC by broth microdilution (CLSI); format: cell-based, Pseudomonas aeruginosa
Experimental: as §7, §6

[10] = K. pneumoniae, RA-HQ-12: 16 μM, Zn: 64 μM
[11] = MRSA, RA-HQ-12: 3.5 μM, Zn: […], oxacillin with 2% NaCl
[12] = MRSA, RA-HQ-12: 3.5 μM, oxacillin with 2% NaCl

CN(C)Cc1ccc2c(Cl)cc(Cl)c(O)c2n1 [PBT2, 5,7-dichloro-2-[(dimethylamino)methyl]-8-quinolinol]
MIC ([1]; Streptococcus pyogenes, GAS HKU 16, substance alone, read-out: MIC): > 30 µM | MIC ([2]; Enterococcus, VRE RBWH1, substance alone, read-out: MIC): 1.9 µM | antibacterial activity (GAS): neither PBT2 nor zinc(II) ions (in the form of zinc chloride) displayed antibacterial activity | antibacterial activity (MRSA): neither PBT2 nor zinc(II) ions (in the form of zinc chloride) displayed antibacterial activity | antibacterial activity (VRE [3]): neither PBT2 nor zinc(II) ions (in the form of zinc chloride) displayed antibacterial activity | safety and tolerability [4]: safe and well tolerated | MIC ([5]; Staphylococcus aureus, MRSA USA300, substance alone): 3.75 µM

CN[C@H](CC(C)C)C(=O)N[C@H]1C(=O)N[C@@H](CC(N)=O)C(=O)N[C@H]2C(=O)N[C@H]3C(=O)N[C@H](C(=O)N[C@H](C(=O)O)c4cc(O)cc(O)c4-c4cc3ccc4O)[C@H](O)c3ccc(c(Cl)c3)Oc3cc2cc(c3O[C@@H]2O[C@H](CO)[C@@H](O)[C@H](O)[C@H]2O[C@H]2C[C@](C)(N)[C@H](O)[C@H](C)O2)Oc2ccc(cc2Cl)[C@H]1O [Vancomycin, vancomycin]
MIC ([1]; Streptococcus pyogenes, GAS, RA-HQ-12: 3.5 μM): 0.5 µg/mL | MIC ([1]; Streptococcus pyogenes, GAS, RA-HQ-12: 3.5 μM, Zn: […]): 0.25 µg/mL | MIC ([1]; Streptococcus pyogenes, GAS, Zn: […] (RA-HQ-12 panel)): 0.5 µg/mL | MIC ([1]; Streptococcus pyogenes, GAS, RA-HQ-12: 0 μM, Zn: 0 μM): 0.5 µg/mL | MIC ([2]; Enterococcus, VRE, VRE RBWH1, CQ: 0 μM, Zinc: 0 μM): > 128 µg/mL | MIC ([2]; Enterococcus, VRE, VRE RBWH1, CQ: 2.5 μM): > 128 µg/mL | MIC ([2]; Enterococcus, VRE, VRE RBWH1, CQ: 2.5 μM, Zinc: 32 μM): 1 µg/mL | MIC ([2]; Enterococcus, VRE, VRE RBWH1, PBT2: 0 μM, Zinc: 0 μM): > 128 µg/mL | MIC ([2]; Enterococcus, VRE, VRE RBWH1, PBT2: 1.75 μM): > 128 µg/mL | MIC ([2]; Enterococcus, VRE, VRE RBWH1, PBT2: 1.75 μM, Zinc: […]): 1 to 2 µg/mL | MIC ([2]; Enterococcus, VRE, VRE RBWH1, Zinc: 32 μM): > 128 µg/mL | MIC ([2]; Enterococcus, VRE, VRE RBWH1, Zinc: […] (PBT2 panel)): > 128 µg/mL | MIC ([2]; Enterococcus, VRE, RA-HQ-12: 0 μM, Zn: 0 μM): > 128 µg/mL | MIC ([2]; Enterococcus, VRE, RA-HQ-12: 3.5 μM): > 128 µg/mL | MIC ([2]; Enterococcus, VRE, RA-HQ-12: 3.5 μM, Zn: […]): > 128 µg/mL | MIC ([2]; Enterococcus, VRE, Zn: […] (RA-HQ-12 panel)): > 128 µg/mL | antibiotic sensitivity of resistant strain ([2]; VRE RBWH1): became sensitive | MIC ([6]; K. pneumoniae, RA-HQ-12: 16 μM): >128 µg/mL | MIC [6, 10]: >128 µg/mL | MIC ([6]; K. pneumoniae, Zn: 64 μM): >128 µg/mL | MIC ([6]; Klebsiella pneumoniae, MS6771): > 128 µg/mL | bacterial burden at the site of infection (CFUs) (VRE [7]; 1.5% vancomycin in combination with 2 mM PBT2 + 25 mM ZnSO4, ointment twice daily): significantly reducing infection | bacterial burden at the site of infection (CFUs) (VRE [7]; treatment alone: 2 mM PBT2 + 25 mM ZnSO4, or 1.5% vancomycin, ointment twice daily): Neither antibiotic nor sub-inhibitory concentrations of PBT2+zinc(II) ions alone reduced bacterial burden | MIC [5, 11]: 1 µg/mL | MIC [5, 12]: 1 µg/mL | MIC ([5]; Staphylococcus aureus): 1 µg/mL

colistin
antibiotic resensitization ([1]; GAS HKU16, RA-HQ-12+zinc(II) ions (ZnSO4)): resensitize | antibiotic sensitivity of resistant strain ([1]; GAS HKU16, addition of sub-inhibitory PBT2+zinc(II) ions): became sensitive | MIC ([1]; GAS, RA-HQ-12: 3.5 μM, Zn: […]): 2-4^# μg/mL | MIC ([1]; Streptococcus pyogenes HKU16, CQ: 6 μM): 64 µg/mL | MIC ([1]; Streptococcus pyogenes HKU16, CQ: 6 μM, Zinc: 80 μM): 1 µg/mL | MIC ([1]; Streptococcus pyogenes HKU16, PBT2: 4.75 μM): 32 µg/mL | MIC ([1]; Streptococcus pyogenes HKU16, PBT2: 4.75 μM, Zinc: […]): 0.5-1^ μg/mL | MIC ([2]; VRE RBWH1, CQ: 2.5 μM, Zinc: 32 μM): 0.5 to 1 µg/mL | MIC ([2]; VRE RBWH1, PBT2: 1.75 μM, Zinc: […]): 0.5 µg/mL | antibiotic resensitization ([2]; VRE RBWH1, RA-HQ-12+zinc(II) ions (ZnSO4)): resensitize | antibiotic sensitivity of resistant strain ([2]; VRE RBWH1): became sensitive | MIC ([2]; VRE, RA-HQ-12: 3.5 μM): 32 µg/mL | MIC ([2]; VRE, RA-HQ-12: 3.5 μM, Zn: […]): 2-4^# μg/mL | MIC ([6]; K. pneumoniae, RA-HQ-12: 0 μM, Zn: 0 μM): 64 µg/mL | MIC ([6]; K. pneumoniae, RA-HQ-12: 16 μM): 32 µg/mL | MIC [6, 10]: 4^# μg/mL | MIC ([6]; K. pneumoniae, Zn: 64 μM): 64 µg/mL | antibiotic resensitization ([6]; Klebsiella pneumoniae MS6771, RA-HQ-12+zinc(II) ions (ZnSO4)): resensitize | antibiotic sensitivity of resistant strain ([6]; Klebsiella pneumoniae MS6771, addition of sub-inhibitory PBT2+zinc(II) ions): became sensitive | antibiotic sensitivity of resistant strain ([6]; Klebsiella pneumoniae MS6771, combination with PBT2, no zinc): resulted in sensitivity | MIC ([6]; Klebsiella pneumoniae, CQ: 0 μM, Zinc: 0 μM): 64 µg/mL | MIC ([6]; Klebsiella pneumoniae, CQ: 64 μM): 0.5 µg/mL | MIC ([6]; Klebsiella pneumoniae, CQ: 64 μM, Zinc: 256 μM): 0.5 µg/mL | MIC ([6]; Klebsiella pneumoniae, PBT2: 0 μM, Zinc: 0 μM): 32 to 64 µg/mL | MIC ([6]; Klebsiella pneumoniae, Zinc: 256 μM (CQ panel)): 32 to 64 µg/mL | MIC ([6]; Klebsiella pneumoniae, Zinc: 256 μM (PBT2 panel)): 32 to 64 µg/mL | antibiotic sensitivity of resistant strain ([8]; addition of sub-inhibitory PBT2+zinc(II) ions): became sensitive | antibiotic sensitivity of resistant strain ([8]; combination with PBT2, no zinc): resulted in sensitivity | MIC ([8]; CQ: 0 μM, Zinc: 0 μM): 8 µg/mL | MIC ([8]; CQ: 5 μM): 2 µg/mL | MIC ([8]; CQ: 5 μM, Zinc: 25 μM): 0.5 to 1 µg/mL | MIC ([8]; PBT2: 0 μM, Zinc: 0 μM): 8 µg/mL | MIC ([8]; PBT2: 7 μM): 1 µg/mL | MIC ([8]; PBT2: 7 μM, Zinc: 200 μM): 0.25 µg/mL | MIC ([8]; Zinc: 25 μM): 8 µg/mL | MIC ([8]; Zinc: 200 μM): 8 µg/mL | MIC (A. baumannii strain 42-A): >64 µg/mL | MIC ([9]; PBT2): 1 µg/mL | MIC ([9]; Untreated): 8 µg/mL | MIC ([5]; MRSA USA300, CQ: 1 μM, Zinc: 32 μM): 2 µg/mL | MIC ([5]; MRSA USA300, PBT2: 2 μM, Zinc: 50 μM): 2 µg/mL | antibiotic resensitization ([5]; MRSA USA 300, RA-HQ-12+zinc(II) ions (ZnSO4)): resensitize | antibiotic sensitivity of resistant strain ([5]; MRSA USA300, addition of sub-inhibitory PBT2+zinc(II) ions): became sensitive | MIC [5, 11]: 8 µg/mL | MIC [5, 12]: 64 µg/mL

Source: patent publication US20200261440A1, “ZINC IONOPHORES AND USES THEREOF” (THE UNIVERSITY OF QUEENSLAND, priority 2017, published 2020)
